From patent US20210395327A1, “Growth Hormone-Releasing Hormone Antagonists and Uses Thereof” (United States Government As Represented By The Department …, priority 2019, published 2021)
Non-standard residues stand in square brackets, D forms with d. Residues, ends and D or L forms follow the SMILES beside them. *: point of attachment. Phe(F5) = N[C@@H](Cc1c(F)c(F)c(F)c(F)c1F)C(=O)O; hArg = N=C(N)NCCCC[C@H](N)C(=O)O; 12Ado = NCCCCCCCCCCCC(=O)O; Nle = CCCC[C@H](N)C(=O)O; Orn = NCCC[C@H](N)C(=O)O; Abu = CC[C@H](N)C(=O)O; PhAc = O=C(Cc1ccccc1)*

Assays:
Type in all cases: in vivo
[1] = tested on: breast cancer MX-1 xenograft; assay: Xenograft tumor growth in nude mice, MX-1; conditions: Table 4J, Breast Ca MX-1, 4 weeks, 5 μg/day s.c.
Method: (§1) The peptides' activity was compared with GHRH antagonist MIA-602. All statistical analyzses were performed from comparing GHRA antagonists to non-treated tumor (control).
(§2) Peptides and chemicals. GHRH antagonists MIA-602 and AVR-GHRH antagonists (see Table 2 above) were synthesized by solid phase methods and purified by HPLC. The peptides were dissolved in DMSO and further diluted in 10% 1,2-propanediol. The final concentration of peptides was 50 µg/ml in 10% 1,2-propanediol containing 0.1% of DMSO.
(§3) Cell culture. Human cancer cell lines including pancreatic (PANC-1 and CFPAC-1), lung (HCC827 and H460), stomach (NCI-N87), prostate (PC3), brest (MX-1 and HCC-1806), colorectal (HT-29), and ovarian (SK-OV-3 and OVCAR-3) were obtained from the American Type Culture Collection (ATCC) and cultured at 37° C. in a humidified 95% air/5% CO2 atmosphere in the medium recommended by ATCC.
(§4) Xenograft models of human cancers in nude mice. Female athymic (NCr nu/nu) nude mice, 5- to 6-weeks-old, obtained from the Envigo labs (Tampa, Fla.), were housed in laminar airflow cabinets under pathogen-free conditions with a 12-h light/12-h dark schedule, and were fed autoclaved standard chow and water. To generate mice with xenografted tumors, tumor xenografts were initiated by subcutaneous (s.c.) injection of 107 human cancer cells into female nude mice. After about 4 weeks the resulting tumors were dissected and collected after removing necrosis tissues. The tumors were then cut into particles with size of 3 mm3 and transplanted s.c. by trocar needle into experimental animals. When tumors grew to the size of 50-60 mm3 (by volume), mice were randomized into groups and treated daily for 4-8 weeks by subcutaneous administration of 5 μg of GHRH antagonists MIA-602 or AVR-compounds (2-10 μg as indicated), or vehicle solutions (0.1% DMSO in 10% 1,2-propanediol) respectively. Tumor sizes were measured weekly.
(§5) Statistical analysis. One-way ANOVA followed by Bonferroni comparison were performed. Data are expressed as Mean±SEM. To determine statistical significance between animal groups, two-tailed Student's t-test was conducted. Differences were considered significant when p<0.05.
(§6) Results. […] FIG. 1A-N represents in vivo inhibition of tumor growth during the treatment with GHRH antagonist MIA-602 and selected AVR antagonists in nude mice xenografted with various human tumors including pancreatic cancer PANC-1 (FIG. 1A) and CFPAC-1 (FIG. 1I); lung cancer HCC827 (FIGS. 1B, C) and H460 (FIG. 1H); stomach cancer N87 (FIGS. 1D-F); colon cancer HT-29 (FIG. 1G); breast cancer MX-1 and HCC-1806 (FIGS. 1J, K); ovarian cancer SK-OV-3 and OVACAR-3 (FIGS. 1 L, M) and prostate cancer PC3 (FIG. 1N). See also Table 5.

[2] = tested on: stomach cancer N87 xenograft; assay: Xenograft tumor growth in nude mice, N87; conditions: for % Inhibition: vs control
Method: as §1, §2, §3
as §4, with “mice were randomized into groups and treated daily for 4-8 weeks by subcutaneous administration” left out
as §5, §6

[3] = tested on: lung cancer HCC827 xenograft; assay: Xenograft tumor growth in nude mice, HCC827; conditions: Table 4B, Lung Ca HCC827, 7 weeks, 5 μg/day s.c.
Method: as §1, §2, §3, §4, §5, §6

[4] = tested on: ovarian cancer OVCAR-3 xenograft; assay: Xenograft tumor growth in nude mice, OVCAR-3; conditions: Table 4M, Ovarian Ca OVCAR-3, 9 weeks, 5 μg/day s.c.
Method: as §1, §2, §3, §4, §5, §6

[5] = Table 4D, Stomach Ca N87, 10 weeks, 2 μg/day s.c.
[6] = Table 4D, Stomach Ca N87, 10 weeks, 5 μg/day s.c.
[7] = Table 4E, Stomach Ca N87, 4 weeks, 5 μg/day s.c.
[8] = Table 4F, Stomach Ca N87, 4 weeks, 5 μg/day s.c.

Structure (SMILES): CCCC[C@H](NC(=O)[C@@H](NC(=O)[C@H](CC(=O)O)NC(=O)[C@H](CCC(N)=O)NC(=O)[C@H](CC(C)C)NC(=O)[C@H](CC(C)C)NC(=O)[C@H](CCCN)NC(=O)[C@H](Cc1c[nH]cn1)NC(=O)[C@H](C)NC(=O)[C@H](CO)NC(=O)[C@H](CC(C)C)NC(=O)[C@H](CCC(N)=O)NC(=O)[C@H](CC)NC(=O)[C@H](CC(C)C)NC(=O)[C@@H](NC(=O)[C@H](CCCN)NC(=O)[C@H](Cc1c[nH]cn1)NC(=O)[C@H](Cc1ccc(OC)cc1)NC(=O)[C@H](CCCCNC(=N)N)NC(=O)[C@H](C)NC(=O)[C@@H](NC(=O)[C@H](Cc1c(F)c(F)c(F)c(F)c1F)NC(=O)[C@@H](NC(=O)[C@H](C)NC(=O)[C@H](CC(=O)O)NC(=O)[C@@H](CCCNC(=N)N)NC(=O)[C@H](Cc1ccc(O)cc1)NC(=O)CCCCCCCCCCCNC(=O)Cc1ccccc1)[C@@H](C)CC)[C@@H](C)O)C(C)C)[C@@H](C)CC)C(=O)N[C@H](CCCNC(=N)N)C(=O)N[C@@H](CCCCNC(=N)N)C(N)=O [MIA-602, PhAC-Ada, Tyr D-Arg, Asp, Ala, Ile, 5FPhe, Thr, Ala, Har, Tyr(Me), His, Orn, Val, Leu, Abu, Gin, Leu, Ser, Ala, His, Om, Leu, Leu, Gin, Asp, Ile; Nle, D-Arg, Har NH2, reference compound] ({PhAc-12Ado}-Y[dR]DAI[Phe(F5)]TA[hArg]Y(Me)H[Orn]VL[Abu]QLSAH[Orn]LLQDI[Nle][dR][hArg]-NH2)
- Tumor Growth % [1]: 677.3%
- % Inhibition ([1]; vs control): 39.2%
- Tumor Size (mm^3) [2, 5]: 1065.00 mm^3
- % Inhibition [2, 5]: 13.0%
- Tumor Size (mm^3) [2, 6]: 767.00 mm^3
- % Inhibition [2, 6]: 37.3%
- Tumor Growth % [2, 7]: 427.20%
- % Inhibition [2, 7]: 52.1%
- Tumor Growth % [2, 8]: 427.20%
- % Inhibition [2, 8]: 52.1%
- Tumor Growth % [3]: 662.2%
- % Inhibition ([3]; vs control): 49.5%
- Tumor Size (mm3) [4]: 267.2 mm3
- % Inhibition ([4]; vs control): 44.4%
